Patent US20240124504A1, “AROMATIC HETEROCYCLIC COMPOUND, AND PHARMACEUTICAL COMPOSITION AND APPLICATION THEREOF” (GT APEIRON THERAPEUTICS LIMITED, priority 2020, published 2024)

Assay: Caco-2 membrane permeability and efflux rate
Format: in vitro ADME
Conditions: human, Caco-2, Caco-2, 5 μM
Experimental: The recovered Caco-2 cell suspension was seeded into a […] plate and cultured for 14-18 days. After being cultured for 14 days, the cells were fused and differentiated to be ready for a transport experiment. The Caco-2 cell plate was taken out from the incubator. Stock solutions of a to-be-tested compound and a control compound were formulated with DMSO and diluted with an HBSS (10 mM HEPES, pH 7.4) buffer to a final concentration of 5 μM. A test compound solution and a control drug solution were added to each well (top end) of an insert culture plate, and the HBSS (10 mM HEPES, pH 7.4) buffer was added to each well of a test compound receiving plate (basal end). When measuring the transport rate of the compound from the basal end to the top end, the test compound solution and the control drug solution were added to each well of the receiving plate (basal end), the HBSS (10 mM HEPES, pH 7.4) buffer solution was added to each well (top end) of the insert culture plate for the test compound solution, and incubation was carried out for 2 hours in a CO2 incubator at 37° C. After the transport experiment was completed, vortexing was carried out for 10 minutes at 1000 rpm. After sample quenching at each time point, LC/MS/MS analysis was carried out. A fluorescence value was measured after a two-hour transport experiment, a lucifer yellow solution was added in a transwell chamber (top end), a transport buffer solution was added in the basal end, and incubation was carried out for 30 minutes in the CO2 incubator at 37° C. The solution was taken out directly from the top end and the basal end (using basolateral wells) and transferred to a new 96-well plate. A cell fluorescence value was measured by a microplate reader (to detect membrane integrity), an excitation wavelength was […], and an emission wavelength was […]. All data were calculated by using Microsoft Excel, and a peak area was calculated according to chromatograms. An apparent permeability coefficient (Papp, unit: 10-6, cm/s) and an efflux rate (ER) of the compounds in Caco-2 cells were calculated by the specific concentrations of a receiving end and an administering end.

Papp B→A at 2 h, 5 μM (basal end to top end): 15.9 ×10⁻⁶ cm/s | efflux ratio at 2 h, 5 μM (read-out: ER (efflux rate)): 70.7 | Papp A→B at 2 h, 5 μM (top end to basal end): 0.23 ×10⁻⁶ cm/s
SMILES: CP(C)(=O)c1cccc2c(-c3nc(N[C@H]4CCCNC4)ncc3C(F)(F)F)c[nH]c12 [A control compound WO2018013867 (353), reference compound]
